pEC50: −log10 of the molar value. Where two headings read alike, the source gives them in different places.
How the values were obtained:
[1] = tested on: OVCAR3 cells; assay: Cell Titer Glo 2.0 viability after biomarker siRNA knockdown (Example 6); format: cell-based; conditions: Homo sapiens, OVCAR-3, 72 h, read-out: absolute EC50
Experimental: OVCAR3 cells cultured in RPMI medium with 20% FBS were transfected with siRNA (Silencer Select, cat #4390824, ThermoFisher) targeting TRIM28 (KAP1) CCNE1, CCNA2, or CHEK2, as compared with a negative control siRNA (cat #4390843, ThermoFisher) using RNAiMAX transfection reagent (ThermoFisher). Twenty-four hours after the transfection, cells were reseeded into 384-well plates and left to adhere for 24 hours before being treated with increasing doses of prexasertib. Relative cell viability against a DMSO control was assessed 72 hours after drug treatment using Cell Titer Glo 2.0 (Promega) and a SpectraMax microplate reader. Error bars represent standard deviations from quadruplicate samples.

[2] = tested on: ST206B ovarian PDX tumor; assay: Response to prexasertib treatment in ovarian PDX tumor model (Example 3); format: in vivo; design: key to Response type: CR = complete regression; PR = partial regression; S = stasis; G = growth
From the text: (§1) To evaluate whether the provided Response-Predictive Signature can predict response to prexasertib treatment, the predicted response for each PDX model was compared to an experimentally determined response to prexasertib treatment for the same PDX model. The experimentally measured response was quantified as follows: if a treated tumor reduced in size/volume, then the percent regression compared to an initial volume of a treated tumor was provided, if a treated tumor increased in size/volume, then a percent ratio of the treated tumor's growth was divided by control tumor (i.e., untreated tumor) growth (d[T/C]). Negative values for regression percentage indicate response to treatment with prexasertib, while positive values indicate continued growth and non-response to prexasertib treatment. The experimentally measured response was further categorized as complete regression (near −100% regression), partial regression (−50% to −100% regression), stasis (<20% median tumor growth to −50% regression), and growth (>20% median tumor growth).

[3] = tested on: Ovarian, metastases; conditions: cited from earlier work
[4] = tested on: PANC1; conditions: PANC1 cell line; external data from prior publications; cited from earlier work
[5] = tested on: ST416 ovarian PDX tumor; assay: Response to prexasertib treatment in ovarian PDX tumor model (Example 3); format: in vivo
From the text: as §1

[6] = tested on: ST255 ovarian PDX tumor; assay: as above; format: in vivo
From the text: as §1

[7] = tested on: ST1301 ovarian PDX tumor; assay: as above; format: in vivo
From the text: as §1

[8] = tested on: ST022 ovarian PDX tumor; assay: as above; format: in vivo
From the text: as §1

[9] = tested on: ST025 ovarian PDX tumor; assay: as above; format: in vivo
From the text: as §1

[10] = tested on: ST1949 ovarian PDX tumor; assay: as above; format: in vivo
From the text: as §1

[11] = tested on: ST1526 ovarian PDX tumor; assay: as above; format: in vivo
From the text: as §1

[12] = tested on: ST1986B ovarian PDX tumor; assay: as above; format: in vivo
From the text: as §1

[13] = tested on: PANC1; assay: Cell viability, sensitivity to prexasertib (Example 1); design: species or system human; conditions: PANC1 cell line; based on EC50 from prior publications
Experimental: (§2) Predicted response to prexasertib was compared to experimentally measured sensitivity to prexasertib. […] EC50 values of less than or equal to 1 μM were considered to be actual responders, while values of greater than 1 μM were considered to be actual non-responders.

[14] = tested on: HCT116; assay: as above; design: species or system human; conditions: HCT116 cell line; based on EC50 from prior publications
Experimental: as §2

[15] = tested on: Ovarian, primary HGS; conditions: trial 2, 46 multi-center, 8-country study; cited from earlier work

COc1cccc(OCCCN)c1-c1cc(Nc2cnc(C#N)cn2)n[nH]1 [prexasertib, 5-(5-(2-(3-aminopropoxy)-6-methoxyphenyl)-1H-pyrazol-3-ylamino)pyrazine-2-carbonitrile]
pEC50 ([1]; BM1 (CHEK2 (Chk2)) siRNA knockdown): 7.51
pEC50 ([1]; BM2 (TRIM28 (KAP1)) siRNA knockdown): < 5.00
pEC50 ([1]; BM3 (CCNA2 (cyclin A2)) siRNA knockdown): 6.79
pEC50 ([1]; BM3 (CCNE1) siRNA knockdown): < 5.00
pEC50 ([1]; negative control siRNA in the BM1 (CHEK2 (Chk2)) knockdown experiment): 7.92
pEC50 ([1]; negative control siRNA in the BM2 (TRIM28 (KAP1)) knockdown experiment): 7.00
pEC50 ([1]; negative control siRNA in the BM3 (CCNA2 (cyclin A2)) knockdown experiment): 7.62
pEC50 ([1]; negative control siRNA in the BM3 (CCNE1 (cyclin E1)) knockdown experiment): 7.60
Response type [2]: CR
Best d[T/C], or Regression ([2]; negative = regression): −100%
ORR in trials ([3]; Ovarian, metastases, trial 1, NCI phase II trial): 32% (trial 1*)
response rate ([3]; single center, phase 2 study in ovarian cancer at NCI, single agent): 29%
pEC50 [4]: < 5.00
Response type [5]: S (S = stasis)
Best d[T/C], or Regression ([5]; negative = regression): −9%
Response type [6]: S (S = stasis)
Best d[T/C], or Regression ([6]; negative = regression): −8.9%
Response type [7]: S (S = stasis)
Best d[T/C], or Regression ([7]; negative = regression): 1.2%
Response type [8]: G (G = growth)
Best d[T/C], or Regression ([8]; negative = regression): 21.1%
Response type [9]: G (G = growth)
Best d[T/C], or Regression ([9]; negative = regression): 48.9%
Response type [10]: G (G = growth)
Best d[T/C], or Regression ([10]; negative = regression): 56%
Response type [11]: PR (PR = partial regression)
Best d[T/C], or Regression ([11]; negative = regression): −90%
Response type [12]: G (G = growth)
Best d[T/C], or Regression ([12]; negative = regression): 35.1%
Actual response status [13]: NR (values of greater than 1 μM were considered to be actual non-responders)
Actual response status [14]: R (EC50 values of less than or equal to 1 μM were considered to be actual responders)
ORR in trials [15]: 19% (trial 2^)
